Laboratory results: ChEMBL document CHEMBL1147178, “Novel thiol-based TACE inhibitors: rational design, synthesis, and SAR of thiol-containing aryl sulfonamides” (Bioorg Med Chem Lett, 2007)

Experiments:
[1] = target: Disintegrin and metalloproteinase domain-containing protein 17 (Homo sapiens, UniProt P78536); test: Inhibition of TNF-alpha converting enzyme
[2] = target: 72 kDa type IV collagenase (Homo sapiens, UniProt P08253); test: Inhibition of MMP2
Matrilysin = target: T1, Matrilysin (Homo sapiens, UniProt P09237); test: Inhibition of MMP7
T1 sequence (P09237 whole entry): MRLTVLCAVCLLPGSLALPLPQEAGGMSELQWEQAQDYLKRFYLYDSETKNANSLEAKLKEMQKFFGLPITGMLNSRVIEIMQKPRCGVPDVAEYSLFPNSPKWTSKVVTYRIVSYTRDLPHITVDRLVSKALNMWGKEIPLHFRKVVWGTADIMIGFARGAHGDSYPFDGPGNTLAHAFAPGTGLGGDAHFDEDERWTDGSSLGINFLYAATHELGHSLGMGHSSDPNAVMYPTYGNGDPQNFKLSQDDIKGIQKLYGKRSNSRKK

Collagenase 3 = Collagenase 3 (Homo sapiens, UniProt P45452); test: Inhibition of MMP13
[3] = target: Matrix metalloproteinase-9 (Homo sapiens, UniProt P14780); test: Inhibition of MMP9
Chain of Matrix metalloproteinase-9 (P14780 whole entry, looked up): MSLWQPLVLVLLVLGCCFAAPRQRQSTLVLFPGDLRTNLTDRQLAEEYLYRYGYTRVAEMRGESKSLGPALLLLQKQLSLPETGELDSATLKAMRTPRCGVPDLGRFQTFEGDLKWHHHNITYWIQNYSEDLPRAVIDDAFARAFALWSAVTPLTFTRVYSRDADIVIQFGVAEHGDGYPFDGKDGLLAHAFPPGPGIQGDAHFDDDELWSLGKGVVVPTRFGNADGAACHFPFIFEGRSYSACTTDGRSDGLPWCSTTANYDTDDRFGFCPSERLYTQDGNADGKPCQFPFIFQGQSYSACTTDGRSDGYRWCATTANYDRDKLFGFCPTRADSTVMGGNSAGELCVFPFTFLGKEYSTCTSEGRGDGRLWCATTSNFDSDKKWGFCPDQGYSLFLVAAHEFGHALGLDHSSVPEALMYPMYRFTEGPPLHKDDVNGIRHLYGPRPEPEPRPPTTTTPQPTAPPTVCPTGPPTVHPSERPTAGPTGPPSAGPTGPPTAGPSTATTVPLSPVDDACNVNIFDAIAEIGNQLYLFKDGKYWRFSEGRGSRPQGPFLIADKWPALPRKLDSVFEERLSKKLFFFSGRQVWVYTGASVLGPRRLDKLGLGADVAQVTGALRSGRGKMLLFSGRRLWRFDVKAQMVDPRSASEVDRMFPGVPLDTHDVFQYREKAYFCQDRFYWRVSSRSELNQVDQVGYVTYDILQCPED

Neutrophil collagenase = Neutrophil collagenase (Homo sapiens, UniProt P22894); test: Inhibition of MMP8
Chain of Neutrophil collagenase (P22894 whole entry): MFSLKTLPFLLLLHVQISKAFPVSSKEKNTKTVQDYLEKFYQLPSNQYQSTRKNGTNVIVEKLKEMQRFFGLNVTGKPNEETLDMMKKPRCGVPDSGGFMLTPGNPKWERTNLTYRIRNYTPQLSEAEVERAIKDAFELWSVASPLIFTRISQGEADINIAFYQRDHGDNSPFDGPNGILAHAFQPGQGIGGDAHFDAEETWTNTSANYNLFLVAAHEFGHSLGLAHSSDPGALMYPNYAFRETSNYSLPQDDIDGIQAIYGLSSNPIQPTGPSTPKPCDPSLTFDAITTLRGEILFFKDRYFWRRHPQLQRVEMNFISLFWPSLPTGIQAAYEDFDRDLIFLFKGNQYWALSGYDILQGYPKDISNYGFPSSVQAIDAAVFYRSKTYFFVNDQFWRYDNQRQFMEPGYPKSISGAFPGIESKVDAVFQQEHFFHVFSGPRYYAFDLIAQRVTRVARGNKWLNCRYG

Chain of Disintegrin and metalloproteinase domain-containing protein 17 (P78536 whole entry, the tested form may be a part): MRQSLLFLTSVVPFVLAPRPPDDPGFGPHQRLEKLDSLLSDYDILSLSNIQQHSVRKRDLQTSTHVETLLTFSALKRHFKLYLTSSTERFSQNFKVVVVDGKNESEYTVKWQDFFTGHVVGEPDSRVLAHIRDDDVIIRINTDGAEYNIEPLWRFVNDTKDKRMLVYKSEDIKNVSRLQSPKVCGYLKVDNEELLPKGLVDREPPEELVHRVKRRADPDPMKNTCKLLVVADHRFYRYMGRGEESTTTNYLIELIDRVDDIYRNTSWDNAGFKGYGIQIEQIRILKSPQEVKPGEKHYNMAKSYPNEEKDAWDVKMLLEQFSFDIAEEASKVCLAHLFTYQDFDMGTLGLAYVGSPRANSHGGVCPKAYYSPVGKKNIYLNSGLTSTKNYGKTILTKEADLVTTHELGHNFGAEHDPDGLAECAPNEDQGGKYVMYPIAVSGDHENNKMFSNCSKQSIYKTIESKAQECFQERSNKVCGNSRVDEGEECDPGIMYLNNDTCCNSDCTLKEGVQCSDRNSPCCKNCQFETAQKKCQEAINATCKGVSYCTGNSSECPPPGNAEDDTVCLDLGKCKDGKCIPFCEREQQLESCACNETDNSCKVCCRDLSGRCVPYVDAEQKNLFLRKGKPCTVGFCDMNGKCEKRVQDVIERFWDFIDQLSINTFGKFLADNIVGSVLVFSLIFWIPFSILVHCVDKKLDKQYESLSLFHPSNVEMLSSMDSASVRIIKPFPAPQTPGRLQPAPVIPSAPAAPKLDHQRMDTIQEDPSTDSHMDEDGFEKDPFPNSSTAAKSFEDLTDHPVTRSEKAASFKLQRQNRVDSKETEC
Chain of 72 kDa type IV collagenase (P08253 whole entry): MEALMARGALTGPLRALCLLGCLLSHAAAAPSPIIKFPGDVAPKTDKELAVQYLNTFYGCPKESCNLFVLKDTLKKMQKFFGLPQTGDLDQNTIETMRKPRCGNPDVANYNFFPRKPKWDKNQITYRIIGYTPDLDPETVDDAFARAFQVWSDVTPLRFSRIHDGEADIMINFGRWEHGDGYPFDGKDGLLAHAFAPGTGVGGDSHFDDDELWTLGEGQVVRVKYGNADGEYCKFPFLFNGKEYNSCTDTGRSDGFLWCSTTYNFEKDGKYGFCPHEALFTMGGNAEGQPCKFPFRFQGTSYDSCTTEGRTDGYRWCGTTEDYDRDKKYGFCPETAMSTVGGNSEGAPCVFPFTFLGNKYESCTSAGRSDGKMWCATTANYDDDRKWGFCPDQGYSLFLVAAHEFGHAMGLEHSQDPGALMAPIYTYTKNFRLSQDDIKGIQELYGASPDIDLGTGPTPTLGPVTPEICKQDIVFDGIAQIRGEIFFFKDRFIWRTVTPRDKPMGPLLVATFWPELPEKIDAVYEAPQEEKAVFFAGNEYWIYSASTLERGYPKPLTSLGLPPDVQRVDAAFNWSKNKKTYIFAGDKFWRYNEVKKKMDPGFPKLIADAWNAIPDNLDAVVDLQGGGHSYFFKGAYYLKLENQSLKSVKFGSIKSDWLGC

| SMILES | Ki [1] | Ki [2] | Ki (Matrilysin) | Ki (Collagenase 3) | Ki [3] | Ki (Neutrophil collagenase) |
| --- | --- | --- | --- | --- | --- | --- |
| O=S(=O)(c1ccc(OCC#CCN2CCCCC2)cc1)N1CC[C@@H](S)C1 | 530 nM | – | – | – | – | – |
| CC#CCNc1ccc(S(=O)(=O)N2CC(S)C2)cc1 | 11 nM | – | – | – | – | – |
| CC#CCOc1ccc(S(=O)(=O)N2CCCC(S)C2)cc1 (racemic) | 55 nM | > 3000 nM | > 3000 nM | 700 nM | – | – |
| CC#CCOc1ccc(S(=O)(=O)N2CC[C@@H](S)C2)cc1 | – | 5000 nM | > 6000 nM | 1200 nM | – | – |
| CC#CCNc1ccc(S(=O)(=O)N2CC[C@@H](S)C2)cc1 | 5 nM | – | – | – | – | – |
| CN1CCN(CC#CCOc2ccc(S(=O)(=O)N3CC[C@@H](S)C3)cc2)CC1 | 3400 nM | – | – | – | – | – |

Other lines, results leading:

| Ki [1] | Ki [2] | Ki (Matrilysin) | Ki (Collagenase 3) | Ki [3] | Ki (Neutrophil collagenase) | SMILES |
| --- | --- | --- | --- | --- | --- | --- |
| 27 nM | – | – | – | – | – | CC#CCOc1ccc(S(=O)(=O)N(C)C[C@H](C)S)cc1 |
| 10 nM | 27 nM | 3400 nM | 17 nM | – | – | CC#CCOc1ccc(S(=O)(=O)N(C)CC(=O)NO)cc1 |
| 13 nM | – | – | – | – | – | CC#CCOc1ccc(S(=O)(=O)N2CC(S)C2)cc1 |
| 52 nM | 5700 nM | 33000 nM | 2000 nM | 200 nM | 1300 nM | CC#CCOc1ccc(S(=O)(=O)N(C)CCS)cc1 |
